Assay results: PMC6269587 (Iranian Journal of Pharmaceutical Research : IJPR, 2018)

Experiments:
[1] = target: T1, Acetylcholinesterase (AChE) (Homo sapiens, UniProt P22303); assay: biochemical; conditions: for AChE Inhibitory IC50 ± SD: Ellman's method, 412 nm, 25 °C, pH 8.0
T1 construct: purchased Sigma (Germany)
Protocol: AChE inhibitory effect of petroleum ether, chloroform, ethyl acetate, and methanol fractions were carried out by the Ellman′s method ([16]).

[2] = DPPH radical scavenging activity (antioxidant activity); conditions: DPPH method, 30 min, 517 nm, triplicate
Protocol: The DPPH method is based on the free radical scavenging activity ([17]). briefly, 2 mL of DPPH solution in methanol (4×10^-5 g/mL) was prepared and added to 1 mL of different concentrations of sample solution in methanol (0.1, 0.5 and 1.0 mg/mL). The mixture was kept in the dark for 30 min at room temperature. The antioxidant activity was measured by Shimadzu, UV/VIS model 160A spectrophotometer at 517 nm.
All the measurements were done in triplicate. The IC50 values were calculated as means ± SD and butylated hydroxytoluene (BHT) was used as positive control.

[3] = system: triple transgenic mice of Alzheimer's disease model; conditions: cited from earlier work
brain cells = conditions: mice; cited from earlier work

T1 sequence (P22303 32-614, species assumed): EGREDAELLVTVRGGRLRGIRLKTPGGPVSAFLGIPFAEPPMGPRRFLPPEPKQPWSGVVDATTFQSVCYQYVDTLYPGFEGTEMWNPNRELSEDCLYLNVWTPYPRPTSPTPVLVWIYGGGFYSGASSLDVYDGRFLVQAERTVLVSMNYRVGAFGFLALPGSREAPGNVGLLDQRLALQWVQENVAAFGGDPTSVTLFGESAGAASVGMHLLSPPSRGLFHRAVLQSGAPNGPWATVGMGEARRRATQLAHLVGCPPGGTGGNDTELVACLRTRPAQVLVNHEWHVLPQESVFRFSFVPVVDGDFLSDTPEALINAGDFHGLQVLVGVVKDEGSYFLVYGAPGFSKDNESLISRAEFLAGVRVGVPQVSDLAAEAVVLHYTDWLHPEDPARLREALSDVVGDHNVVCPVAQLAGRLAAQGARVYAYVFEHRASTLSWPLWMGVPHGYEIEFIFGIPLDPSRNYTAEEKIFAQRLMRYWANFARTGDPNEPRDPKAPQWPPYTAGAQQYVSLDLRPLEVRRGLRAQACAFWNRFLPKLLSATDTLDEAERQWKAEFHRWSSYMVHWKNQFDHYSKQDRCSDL

| Compound | IC50 [1] [µM] | Antioxidant Activity IC50 ± SD [2] [µg/mL] | effect on performance, emotional and cognitive behavior [3] | neuroprotective effect (brain cells) | AChE Inhibitory IC50 ± SD [1] |
| --- | --- | --- | --- | --- | --- |
| O=c1c(O[C@@H]2O[C@H](CO)[C@@H](O)[C@H](O)[C@H]2O)c(-c2ccc(O)cc2)oc2cc(O)cc(O)c12 [Astragalin, astragalin] | 162 | 26.92 ± 3.5 |  |  |  |
| Cc1cc(C(C)(C)C)c(O)c(C(C)(C)C)c1 [BHT, butylated hydroxytoluene, reference compound] |  | 19.50 ± 2.8 |  |  |  |
| O=C(O)/C=C/c1ccc(O)c(O)c1 [Caffeic acid] | 66.9 | 11.41 ± 6.0 |  |  |  |
| O=c1c(O)c(-c2ccc(O)c(O)c2)oc2cc(O)cc(O)c12 [Quercetin, quercetin] | 220 | 10.24 ± 1.3 | protective effects on performance, emotional and cognitive behavior have been confirmed | strong protective effects of this compound on the brain cells |  |
| O=C(O)c1ccccc1O [Salicylic acid] |  | 114.57 ± 1.0 |  |  | - |
| O=C(O)C=Cc1ccc(O)cc1 [p-Coumaric acid] |  | 110.33 ± 1.2 |  |  | - |
